Test results reported in US12295920B2, “Composition for treatment, prevention, or amelioration of Alzheimer's disease, a composition for suppression of brain nerve cell death, a composition for suppression of microglia activation induced by amyloid β peptide, and a composition for suppression of PGE2, TNF-α, or IL-1β production induced …” (House Wellness Foods Corporation, priority 2018, dated 2025).

Columns and labels:
[1] = system: macrophage cells differentiated from THP-1 cells; test: Suppression of TNF-α production by macrophage cells activated by amyloid β peptide aggregate (ELISA); assay type: cell-based, human; conditions: 50 μM and 100 μM compound, 24 h pretreatment; 25 μM Aβ aggregate 24 h; FIG. 2
Description: (§1) 1.4. Evaluation of Activity of Suppressing Activation of Macrophage Cells Induced by Amyloid β Peptide Cells of the human monocytic cell line THP-1 were suspended in RPMI1640 (10% FBS) medium, the cells were seeded in a 96-well plate at 8.0×10^4 cells/well, 100 nM 12-O-tetradecanoylphorbol 13-acetate (PMA, differentiation-inducing factor) was added thereto, and culture was conducted in the presence of 5% CO2 for 24 hours to differentiate the cells into macrophage cells. Thereafter, the medium was exchanged with another RPMI1640 (10% FBS) medium containing either the turmeric extracts (50, 100, and 200 μg/ml), termeronol A (12.5, 25, 50, or 100 μM), or termeronol B (12.5, 25, 50, or 100 μM), and culture was conducted in the presence of 5% CO2 for 24 hours to treat the cells with each specimen. Thereafter, the medium was exchanged with another RPMI1640 (2% FBS) medium containing an aggregate of 25 μM amyloid β peptides (Aβ), and culture was conducted in the presence of 5% CO2 for 24 hours to activate the cells. Thereafter, prostaglandin E2 (PGE2), the tumor necrosis factor α (TNF-α), and interleukin-1β (IL-1β) released in the medium were assayed via ELISA.

[2] = system: macrophage cells differentiated from THP-1 cells; test: Suppression of PGE2 production by macrophage cells activated by amyloid β peptide aggregate (ELISA); assay type: cell-based, human; conditions: 12.5 to 100 μM compound, 24 h pretreatment; 25 μM Aβ aggregate 24 h; FIG. 1
Description: as §1

[3] = system: macrophage cells differentiated from THP-1 cells; test: Suppression of IL-1β production by macrophage cells activated by amyloid β peptide aggregate (ELISA); assay type: cell-based, human; conditions: 50 μM and 100 μM compound, 24 h pretreatment; 25 μM Aβ aggregate 24 h; FIG. 3
Description: as §1

[4] = system: human neuroblastoma SHSY5Y cells; test: Cell death of SHSY5Y cells induced by conditioned medium of Aβ-activated macrophage cells (WST-1 assay); assay type: cell-based; conditions: macrophage cells pretreated with termeronol B 50 μM 24 h, then 25 μM Aβ 12 h; SHSY5Y 48 h in conditioned medium; vs control (Aβ+); FIG. 4
Description: Cells of the human monocytic cell line THP-1 were suspended in RPMI1640 (10% FBS) medium, the cells were seeded in a 96-well plate at 8.0×10^4 cells/well, 100 nM 12-O-tetradecanoylphorbol 13-acetate (PMA, differentiation-inducing factor) was added thereto, and culture was conducted in the presence of 5% CO2 for 24 hours to differentiate the cells into macrophage cells. […]
WST-1 assays comprise: adding WST-1 (2-(4-iodophenyl)-3-(4-nitrophenyl)-5-(2,4-disulfophenyl)-2H-tetrazolium, monosodium salt, Dojindo Laboratories) to each well containing cells; conducting culture in a CO2 incubator for a given period of time to generate water-soluble formazan from WST-1 with the activity of dehydrogenase in mitochondria of viable cells; and assaying the concentration of the generated formazan. […] The formazan concentration was determined based on the absorbance at 450 nm using a microplate reader (reference wavelength: 630 nm). […]

| Compound | enhancement of TNF-α production by Aβ treatment [1] | enhancement of PEG2 production by Aβ treatment [2] | enhancement of IL-1β production by Aβ treatment [3] | activity of the culture supernatant for inducing cell death of brain neuronal cells [4] |
| --- | --- | --- | --- | --- |
| CC(C)=CC(=O)CC(C)c1ccc(C)c(O)c1 (stereo not shown) [termeronol A, Termeronol A] | suppress the enhancement of TNF-α production | suppress the enhancement of PEG2 production | suppress the enhancement of IL-1β production | – |
| CC(C)=CC(=O)CC(C)c1ccc(C)cc1O (stereo not shown) [termeronol B, Termeronol B] | suppress the enhancement of TNF-α production | suppress the enhancement of PEG2 production | suppress the enhancement of IL-1β production | more suppressed |
